# Laboratory results taken from patent US20090035295A1, “Screening Method, Process for Purifying of Non-Diffusible A-Beta Oligomers, Selective Antibodies Against Said Non-Diffusible a-Beta Oligomers and a Process for Manufacturing of Said Antibodies” (Abbott GmgH & Co. KG, priority 2005, published 2009).
# “Also recorded” adds a separate entry of the source. No end group written: not given here.
# How the values were obtained:
# [1] = biological target: T1, Aβ(1-42) globulomer formation (Homo sapiens, UniProt P05067); assay: Induction of Aβ(1-42) globulomer formation by fatty acids replacing SDS (SDS-PAGE); format: biochemical; settings: fatty acid in place of SDS, neutral pH
# T1 construct: Aβ(1-42) synthetic peptide (Cat. No. H-1368, Bachem, Switzerland); purchased Bachem H-1368; host or cells: chemical synthesis; oligomerised in house (HFIP, DMSO, 0.2% SDS or 0.5% fatty acid, dilution)
# T1 sequence (P05067 672-713 limits assumed): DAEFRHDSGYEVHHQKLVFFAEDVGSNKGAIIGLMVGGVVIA
# Protocol: Lanes: (1) control without inducing agent, (2) positive control with 0.2% SDS, (3) 0.5% lauric acid (12:0), (4) 0.5% oleic acid (18:1), (5) linoleic acid […], (6) eicosapentanoic acid (20:5), (7) docosatetranoic acid (22:4), (8) docosahexanoic acid (22:6), (9) positive control with 0.2% SDS, (10) 1% arachidonic acid. Yields of Aβ(1-42) globulomer (g, indicated with arrowheads) differ between various fatty acids;
# A solution of Aβ(1-42) globulomers was prepared as described in example 5a of WO2004/067561. Briefly, Aβ(1-42) synthetic peptide (Cat. No. H-1368, Bachem, Switzerland) was suspended in 1,1,1,3,3,3-hexafluoro-2-propanol (HFIP) at […] and incubated for complete solubilization under shaking at 37° C. for 1.5 h. HFIP was removed by evaporation in a SpeedVac and Aβ(1-42) resuspended at a concentration of 5 mM in dimethyl sulfoxide (DMSO) and 20 sec sonicated. The HFIP pretreated Aβ(1-42) was diluted in phosphate buffered solution (PBS) (20 mM NaH2PO4, 140 mM NaCl, pH 7.4) to 400 μM and 1/10 volume 2% SDS (in H2O) added (final concentration of 0.2% sodium dodecyl sulfate (SDS)).
# APP/Lo mice = assay: Novel object recognition task after active immunization of APP/Lo mice; format: in vivo, mouse; settings: for RI compared with mice treated with Aβ(1-42) monomer or vehicle: P<0.01, ANOVA, post-hoc Holm-Sidak t-test; for Short term memory for objects: active immunization
# Text: APP [V717I] C57BI×FVB female mice (n=36; 6 weeks old) were used for this study (Moechars et al., 1999). All mice were housed and bred in the animal housing facilities of the Catholic University Leuven, Campus Gasthuisberg, in accordance with the Belgian ethical law on housing, breeding and handling laboratory animals.
# They were genotyped by polymerase chain reaction (PCR) at the age of 3 weeks and were double checked by a second PCR at the onset of the study. All mice were blind randomised, age-matched and allocated randomly to a treatment. Animals were re-caged by treatment group one day before the onset of the study in order to allow them to familiarize to the new cage context. […] The food was stored under dry and cool conditions in a well-ventilated storage room. The amount of water and food was checked daily, supplied when necessary and standard refreshed twice a week. Mice were housed under a reversed day-night rhythm: 14 hours light/10 hours darkness, light starting at 7 p.m., in standard metal cages type RVS T2 (area of 540 cm^2) equipped with solid floors and layer of bedding litter.
# The first injection contained 50% (v/v) complete Freund's Adjuvants (Difco Laboratories, Detroit, Mich., USA, ref no 263810) while the boost injections contained 50% (v/v) incomplete Freund's Adjuvant (Difco Laboratories, Detroit, Mich., USA, ref no 263910). Administration of compounds was performed every 3 weeks during 3 months (at week 0/3/6/9/12). • Novel object recognition task in immunized mice:
# After the last injection all mice underwent a novel objection recognition task. The protocol used followed the method as described by Dewachter I. et al., Journal of Neuroscience, 2002, 22(9):3445-3453. Mice were familiarized for one hour to a Plexiglas open-field box (52×52×40 cm) with black vertical walls and a translucent floor, dimly illuminated by a lamp placed underneath the box. The next day the animals were placed in the same box and submitted to a 10 minutes acquisition trial. During this trial mice were placed individually in the open field in the presence of object A (blue ball or red cube, similar sized of ±4 cm), and the duration (timeAA) and the frequency (FreqAA) exploring object A (when the animals snout was directed towards the object at a distance of <1 cm and the mice were actively sniffing in the direction of the object) was recorded by a computerized system (Ethovision, Noldus information Technology, Wageningen, the Netherlands). During a 10 minutes retention trial (second trial) performed 3 hours later, a novel object (object B, red cube or blue ball) was placed together with the familiar object (object A) into the open field. (FreqA and FreqB and TimeA and TimeB, respectively).
# The recognition index (RI), defined as the ratio of the duration in which the novel object was explored over the duration in which both objects were explored [TimeB/(TimeA+TimeB)×100], was used to measure non-spatial memory. The duration and frequency object A was explored during the acquisition trial (TimeAA and FreqAA) was used to measure curiosity.
# glia = assay: Binding of Aβ(1-42) globulomer to glia in hippocampal cultures; format: cell-based, rat; settings: hippocampal preparation, GFAP positive cells
# Protocol: Hippocampal cells from rat brain (QBM Cell Science, Canada) were cultured in 24-well plates on poly-L-lysine coated coverslips (BD Biosciences, Germany) in Neurobasal medium with B27 supplement (Invitrogen, Germany) at 37° C., 5% 002. To some cultures mitosis inhibitors (35 μg/ml uridine, 15 μg/ml 5-fluoro-2′-deoxyuridine) were added at DIV6 to prevent an overgrowing with glia. Unless otherwise stated hippocampal cells were used at DIV13-14. When Aβ-forms were added, 750 μL fresh 37° C. warm medium containing the Aβ-forms were exchanged of the total 1 ml. Incubation took place for 15 min at 37° C., 5% CO2.
# Cells were rinsed three times with 1 ml medium and fixed with 3.7% buffered formaldehdye (Accustain, Sigma, Germany). Unspecific binding sites were blocked by incubation with 10% normal goat serum in PBS (pH 7.4) for 90 min at room temperature to which 0.1% Triton X-100 was added in the case of intracellular counterstaining. Primary antibodies (anti Aβ 6E10 (Signet Laboratories, USA), 1:2000; anti GFAP (Dako Cytomation, Germany), 1:2500; anti MAP2 (Chemicon International, Germany), 1:1000) and secondary antibodies (Alexa 488, 1:500; Alexa 635, 1:500; Molecular Probes, Germany) were subsequently incubated for 2 h at room temperature in 10% normal goat serum in PBS (pH 7.4). […]
# hippocampal neurons = assay: Binding of Aβ forms to cultured hippocampal neurons (immunofluorescence); format: cell-based, rat
# Protocol: Hippocampal cells from rat brain (QBM Cell Science, Canada) were cultured in 24-well plates on poly-L-lysine coated coverslips (BD Biosciences, Germany) in Neurobasal medium with B27 supplement (Invitrogen, Germany) at 37° C., 5% 002. To some cultures mitosis inhibitors (35 μg/ml uridine, 15 μg/ml 5-fluoro-2′-deoxyuridine) were added at DIV6 to prevent an overgrowing with glia. Unless otherwise stated hippocampal cells were used at DIV13-14.
# Cells were rinsed three times with 1 ml medium and fixed with 3.7% buffered formaldehdye (Accustain, Sigma, Germany). Unspecific binding sites were blocked by incubation with 10% normal goat serum in PBS (pH 7.4) for 90 min at room temperature to which 0.1% Triton X-100 was added in the case of intracellular counterstaining. […] After each antibody incubation cells were washed three times with PBS and finally mounted in ProLong antifade reagent (Molecular Probes, Germany).
# neuronal cell-lines = assay: Binding of Aβ(1-42) globulomer to neuronal cell-lines; format: cell-based; settings: data not shown
# long-term potentiation = assay: Long-term potentiation in rat brain slices (CA1 field potentials); format: cell-based
# Protocol: Slices were prepared from male Sprague-Dawley rats (7-8 weeks old). Isolated hemispheres were trimmed and then cut using a vibratome. Slices ([…]) were directly transferred to an interface recording chamber and continuously perfused at 33° C. with oxygenated artificial CSF (aCSF: 118 mM NaCl, 1.24 mM KH2PO4, 10 mM glucose, 2 mM MgSO4, 2.5 mM CaCl2, 5 mM KCl, 25.6 mM NaHCO3) at a flow rate of 1.8 ml/min. Freshly prepared slices were allowed to equilibrate for at least one hour before recording. Field potentials were obtained from stratum radiatum of CA1 using glass microelectrodes (0.8-1.2 MΩ) filled with aCSF. The Schaffer collateral was stimulated by a bipolar tungsten electrode (0.5 MO, Science Products GmbH, Germany). Constant voltage biphasic pulses (0.1 ms/phase; range 1-5 V) were applied once per minute at an intensity yielding 30% of the fEPSP maximum. LTP was induced by 2 trains of 100 Hz (1 sec/train with 10 sec intertrain intervall) using the same intensity and pulse length. […] Signals were digitized by a Power CED 1401 and analyzed using the software Signal 2.14 (Cambridge Electronic Design Ltd., Cambridge). For statistical comparison data were analyzed by 2-way repeated measures ANOVA using SAS.
# [2] = Intracranial injection in rats: in vivo binding and tissue penetration; settings: rat
# Protocol: For electrophysiological and histological studies, male Sprague-Dawley rats were obtained from Janvier (France) at an age of about 8 weeks.
# The rats (260-430 g) were anesthetized with pentobarbital (60 mg/kg i.p.; Narcoren) and fixed in a stereotaxic apparatus according to Paxinos and Watson^36. […] A total volume of 4.3 μL was infused by a 10 μL Hamilton syringe attached to a motorized micropump (WPI, Germany) during 5 min with the cannula being left in place for additional 2 min. […] The infusion was applied via a 10 μL Hamilton syringe during 5 min with the cannula being left in place for additional 5 min.
# Therefore, rats were deeply anesthetized with Narcoren. […] Then, the rats were transcardially perfused with 10 mM PBS (pH 7.2) for 5 min, followed by 4% paraformaldehyde (PFA) in PBS. The brains were removed, postfixed overnight in 4% PFA in PBS containing 30% sucrose and transferred into 30% sucrose in PBS for cryoprotection.
# A Cy3-labeled donkey anti-mouse antibody (Jackson Laboratories) was used for fluorescence labelling for 1 h. Between the steps and at the end, sections were thoroughly washed in TBST three times for 5 min, after which they were mounted onto glass slides, air-dried and cover-slipped with Vectashield hardest mounting medium containing DAPI (Vector Laboratories) to visualize cell nuclei. All incubations were performed at room temperature. Some sections were also stained with 0.05% thioflavine S (Sigma, Germany) in 50% ethanol for 10 min, followed by two rinses of 100% ethanol for 5 min before embedding in Vectashield. Analysis of labelling was performed under a confocal fluorescence microscope (Zeiss LSM 510 Meta, Germany).
# [3] = In vitro stability in PBS at different temperatures, SDS-PAGE; format: physicochemical
# Protocol: The sample at 0.5 mg/ml in 20 mM NaH2PO4; 140 mM NaCl; pH 7.4 was incubated at room temperature and 37° C. for 1 day and 4 days, respectively. An aliquot of 10 μl of the samples was analyzed by SDS-PAGE.
# An aliquot of 100 μl of each of the samples was analyzed by SDS-PAGE.
compound,measurement,setting,value
CC/C=C\C/C=C\C/C=C\C/C=C\C/C=C\C/C=C\CCC(=O)O [docosahexanoic acid],Induction of the characteristic 38/48 kDa Aβ(1-42) globulomer,[1],could not generate
Aβ(20-42) globulomer: truncated globulomer from Aβ(20-42) peptide or thermolysin proteolysis of Aβ(1-42) globulomer (FAEDVGSNKGAIIGLMVGGVVIA; also: globulomer (oligomeric assembly)),RI compared with mice treated with Aβ(1-42) monomer or vehicle,APP/Lo mice,significantly higher
same,Short term memory for objects,APP/Lo mice,selectively improved
same,Recognition index (RI),"APP/Lo mice; second encounter, 3 hours after acquisition, P<0.01 vs chance level",more than 50%
"Aβ(1-42) globulomer: soluble, globular, non-covalent association of about 12 Aβ(1-42) peptides generated from synthetic peptide with SDS",Binding to glia,glia,did not bind
same,Binding to hippocampal neurons,"hippocampal neurons; 200 nM based on monomer (17 nM globulomer), 15 min, 37° C.",strong binding
same,Hippocampal neurons binding globulomer,hippocampal neurons; DIV8,−1%
same,Binding to neuronal cell-lines,neuronal cell-lines,negative
same,Time after tetanization at which potentiation was significantly impaired (as early as),"long-term potentiation; 42 nM, p<0.05",5 min
same,High frequency stimulation-induced LTP,"long-term potentiation; 42 nM, rat brain slices",completely blocks; also recorded: complete block
same,Basic synaptic functioning (input/output relation),long-term potentiation; treated versus untreated slices,not impaired
same,RI compared with mice treated with Aβ(1-42) monomer or vehicle,APP/Lo mice,significantly higher
same,Short term memory for objects,APP/Lo mice,selectively improved
same,Binding to cells of the ventricle walls,[2]; injection into ventricle,rapid and persistent binding
same,Cell toxicity along the ventricle wall (cell density),[2]; injection into ventricle,without obvious cell toxicity
same,Diffusion from ependyme into underlying brain tissue,[2]; injection into ventricle,without detectable diffusion
same,Presence in cerebrospinal fluid after injection,"[2]; injection into ventricle, data not shown",completely disappeared
same,Tissue penetration,[2]; intracerebral injection,Poor tissue penetration
same,Stable in PBS,"[3]; PBS, ambient temperature and 37° C.",at least 4 days
same,Globulomer structure maintained without disassembly or further polymerization to fibrils,"[3]; in vitro, physiological temperature (37° C.)",up to 4 days
CCCCCCCC/C=C\CCCCCCCC(=O)O [oleic acid],Induction of the characteristic 38/48 kDa Aβ(1-42) globulomer,[1],induced
docosatetranoic acid,Induction of the characteristic 38/48 kDa Aβ(1-42) globulomer,[1],could not generate
CCCCC/C=C\C/C=C\C/C=C\C/C=C\CCCC(=O)O [arachidonic acid],Induction of the characteristic 38/48 kDa Aβ(1-42) globulomer,[1],induced
CCCCC/C=C\C/C=C\CCCCCCCC(=O)O [linoleic acid],Induction of the characteristic 38/48 kDa Aβ(1-42) globulomer,[1],could not generate
CCCCCCCCCCCC(=O)O [lauric acid],Induction of the characteristic 38/48 kDa Aβ(1-42) globulomer,[1],induced
CC/C=C\C/C=C\C/C=C\C/C=C\C/C=C\CCCC(=O)O [eicosapentanoic acid],Induction of the characteristic 38/48 kDa Aβ(1-42) globulomer,[1],created a partly shifted oligomer
